For five compounds, IC50 results are on record in the Kinase Knowledgebase extract (Sharma et al. 2016).

The structures appear in SMILES notation. A value given as a limit tells only on which side of the number the result lay.

One test addresses PIK3CA (human) (UniProt P42336). The test can be described thus: Inhibition of PIK3CA Kinase Activity.
In another test the target is PIK3CB (Human) (UniProt P42338). Briefly: Inhibition of PIK3CB Kinase Activity.
The next test concerns the target PIK3CD (Human) (UniProt O00329). The test can be described thus: Inhibition of PIK3CD Kinase Activity.

PIK3CA (human), sequence (P42336 whole entry, looked up): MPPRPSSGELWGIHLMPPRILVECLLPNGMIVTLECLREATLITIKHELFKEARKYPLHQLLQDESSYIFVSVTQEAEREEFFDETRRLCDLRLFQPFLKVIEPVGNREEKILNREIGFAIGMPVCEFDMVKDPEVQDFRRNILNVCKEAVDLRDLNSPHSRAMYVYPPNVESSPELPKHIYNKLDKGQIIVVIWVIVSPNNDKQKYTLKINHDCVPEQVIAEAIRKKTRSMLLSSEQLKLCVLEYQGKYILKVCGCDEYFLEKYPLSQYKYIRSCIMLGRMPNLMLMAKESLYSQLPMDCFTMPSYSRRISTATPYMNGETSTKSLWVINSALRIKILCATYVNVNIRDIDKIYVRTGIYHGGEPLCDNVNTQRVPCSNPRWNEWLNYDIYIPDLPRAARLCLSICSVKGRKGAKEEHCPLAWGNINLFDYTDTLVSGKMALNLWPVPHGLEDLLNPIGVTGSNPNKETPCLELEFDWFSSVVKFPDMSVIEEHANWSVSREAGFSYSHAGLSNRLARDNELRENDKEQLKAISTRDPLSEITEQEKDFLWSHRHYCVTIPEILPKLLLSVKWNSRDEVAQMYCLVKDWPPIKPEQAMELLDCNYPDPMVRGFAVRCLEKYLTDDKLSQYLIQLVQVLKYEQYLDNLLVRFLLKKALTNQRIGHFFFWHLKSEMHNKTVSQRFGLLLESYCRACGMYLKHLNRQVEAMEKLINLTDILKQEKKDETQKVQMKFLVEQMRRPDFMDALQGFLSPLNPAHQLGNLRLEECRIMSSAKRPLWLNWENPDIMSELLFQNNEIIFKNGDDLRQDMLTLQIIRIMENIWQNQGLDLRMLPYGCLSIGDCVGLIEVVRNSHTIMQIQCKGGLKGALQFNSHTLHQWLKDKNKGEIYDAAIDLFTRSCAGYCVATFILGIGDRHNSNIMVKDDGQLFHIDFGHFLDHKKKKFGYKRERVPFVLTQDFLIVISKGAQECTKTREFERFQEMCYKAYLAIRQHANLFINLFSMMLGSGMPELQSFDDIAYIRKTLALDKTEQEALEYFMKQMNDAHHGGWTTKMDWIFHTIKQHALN
PIK3CB (Human), sequence (P42338 whole entry, looked up): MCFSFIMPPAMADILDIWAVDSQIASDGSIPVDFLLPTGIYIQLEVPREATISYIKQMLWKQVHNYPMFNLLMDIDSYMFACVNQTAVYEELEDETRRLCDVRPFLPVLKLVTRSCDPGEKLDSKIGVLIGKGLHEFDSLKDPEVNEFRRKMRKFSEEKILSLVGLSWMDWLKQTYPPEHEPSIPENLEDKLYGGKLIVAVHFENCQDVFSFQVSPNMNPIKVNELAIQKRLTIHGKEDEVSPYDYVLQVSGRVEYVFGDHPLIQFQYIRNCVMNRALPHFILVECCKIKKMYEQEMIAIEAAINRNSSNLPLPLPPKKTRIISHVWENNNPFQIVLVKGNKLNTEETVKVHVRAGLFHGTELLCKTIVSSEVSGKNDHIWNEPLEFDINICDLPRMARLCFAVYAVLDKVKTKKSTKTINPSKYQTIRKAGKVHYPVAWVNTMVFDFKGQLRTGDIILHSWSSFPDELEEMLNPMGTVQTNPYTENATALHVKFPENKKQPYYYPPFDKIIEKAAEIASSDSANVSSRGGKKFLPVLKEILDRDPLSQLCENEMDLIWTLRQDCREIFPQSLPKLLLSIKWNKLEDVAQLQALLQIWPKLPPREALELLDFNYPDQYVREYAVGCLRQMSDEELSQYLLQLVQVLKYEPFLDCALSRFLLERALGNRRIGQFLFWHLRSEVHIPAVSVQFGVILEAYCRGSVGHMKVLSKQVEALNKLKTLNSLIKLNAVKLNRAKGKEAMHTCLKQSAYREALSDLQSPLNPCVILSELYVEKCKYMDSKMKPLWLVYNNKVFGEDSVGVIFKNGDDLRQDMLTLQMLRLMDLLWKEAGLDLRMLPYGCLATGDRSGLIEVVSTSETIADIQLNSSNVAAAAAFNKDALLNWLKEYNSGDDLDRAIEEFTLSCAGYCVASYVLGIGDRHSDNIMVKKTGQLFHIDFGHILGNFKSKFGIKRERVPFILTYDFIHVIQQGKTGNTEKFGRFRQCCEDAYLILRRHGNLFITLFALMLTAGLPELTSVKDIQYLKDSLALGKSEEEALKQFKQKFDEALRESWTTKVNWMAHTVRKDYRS
PIK3CD (Human), sequence (O00329 whole entry, looked up): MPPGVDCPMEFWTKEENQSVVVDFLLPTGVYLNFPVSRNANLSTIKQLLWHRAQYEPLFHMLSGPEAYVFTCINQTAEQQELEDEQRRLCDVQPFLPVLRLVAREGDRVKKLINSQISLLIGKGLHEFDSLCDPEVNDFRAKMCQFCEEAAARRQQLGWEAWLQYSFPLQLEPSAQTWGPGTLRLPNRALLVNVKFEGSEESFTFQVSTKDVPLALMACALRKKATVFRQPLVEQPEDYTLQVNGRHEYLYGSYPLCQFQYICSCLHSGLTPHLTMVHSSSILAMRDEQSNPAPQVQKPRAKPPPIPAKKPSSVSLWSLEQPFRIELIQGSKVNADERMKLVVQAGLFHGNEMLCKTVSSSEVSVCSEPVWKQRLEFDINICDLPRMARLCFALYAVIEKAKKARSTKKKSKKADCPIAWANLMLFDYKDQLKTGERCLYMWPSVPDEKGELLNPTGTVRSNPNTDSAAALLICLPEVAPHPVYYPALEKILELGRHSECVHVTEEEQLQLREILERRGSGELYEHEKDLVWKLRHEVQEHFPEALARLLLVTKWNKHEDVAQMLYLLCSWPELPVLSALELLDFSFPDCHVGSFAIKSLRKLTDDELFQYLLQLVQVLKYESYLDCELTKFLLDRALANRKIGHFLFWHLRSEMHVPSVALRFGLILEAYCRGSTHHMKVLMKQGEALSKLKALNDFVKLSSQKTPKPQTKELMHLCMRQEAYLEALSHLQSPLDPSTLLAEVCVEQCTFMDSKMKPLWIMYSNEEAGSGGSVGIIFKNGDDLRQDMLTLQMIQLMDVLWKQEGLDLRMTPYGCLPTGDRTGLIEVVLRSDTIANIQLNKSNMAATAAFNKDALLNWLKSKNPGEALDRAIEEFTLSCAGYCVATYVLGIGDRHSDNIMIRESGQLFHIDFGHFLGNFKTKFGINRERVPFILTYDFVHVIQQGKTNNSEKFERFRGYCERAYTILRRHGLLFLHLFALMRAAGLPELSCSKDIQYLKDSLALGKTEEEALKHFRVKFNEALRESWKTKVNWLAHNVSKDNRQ

The IC50 is the point on the concentration scale where inhibition reaches its midpoint. A lower IC50 goes with higher potency. Take `CCCCCC.Cc1ccc([N+](=O)[O-])cc1S(=O)(=O)N(C)N=Cc1cnn2ccc(I)cc12`: the IC50 against PIK3CA (human) was 23 nM; against PIK3CB (Human), 720 nM; at PIK3CD (Human), 240 nM.
Taken in the same sequence, the figures for `CN(N=Cc1cnn2ccc(C#N)cc12)S(=O)(=O)c1cc([N+](=O)[O-])ccc1CCc1ccccn1` were 5.8 nM, 5600 nM and 200 nM.
Regarding `Cc1ccc([N+](=O)[O-])cc1S(=O)(=O)N(C)N=Cc1cnn2ccccc12`, the IC50 at PIK3CB (Human) is more than 10000 nM.
Still for that read-out and setting: the same measure for `CN(N=Cc1cnn2ccc(C#N)cc12)S(=O)(=O)c1cc([N+](=O)[O-])ccc1Cl`: 94 nM.
Take `Cc1ccc([N+](=O)[O-])cc1S(=O)(=O)c1nnc(-c2cnn3ccc(Br)cc23)o1`: the IC50 at PIK3CA (human) is 84 nM; at PIK3CD (Human), 120 nM.
